Assay results reported in patent US20090042957A1, “Substituted Oxyarenes” (Bayer CropScience AG, priority 2004, published 2009).

What was measured:
[1] = system: Spodoptera frugiperda; experiment: Spodoptera frugiperda test (spray treatment); format: in vivo; conditions: for Kill rate in % after 7d: active compound concentration 500 g/ha, sprayed corn leaf disks (Zea mays), caterpillars
Method: Spodoptera frugiperda Test (Spray Treatment) [table] To produce a suitable preparation of active compound, 1 part by weight of active compound is mixed with the stated amounts of solvents and emulsifier, and the concentrate is diluted with emulsifier-containing water to the desired concentration. Disks of corn leaves (Zea mays) are sprayed with an active compound preparation of the desired concentration and, after drying, populated with caterpillars of the armyworm (Spodoptera frugiperda). After the desired period of time, the effect in % is determined. 100% means that all caterpillars have been killed; 0% means that none of the caterpillars have been killed.

[2] = system: Tetranychus urticae; experiment: Tetranychus test; OP-resistant (TETRUR spray treatment); format: in vivo; conditions: active compound concentration 100 g/ha, sprayed bean leaf disks (Phaseolus vulgaris), all stages of spider mite
Method: Tetranychus Test; OP-Resistant (TETRUR Spray Treatment)
To produce a suitable preparation of active compound, 1 part by weight of active compound is mixed with the stated amounts of solvents and emulsifier, and the concentrate is diluted with emulsifier-containing water to the desired concentration.
Disks of bean leaves (Phaseolus vulgaris) which are infested by all stages of the greenhouse red spider mite (Tetranychus urticae) are sprayed with an active compound preparation of the desired concentration.
After the desired period of time, the effect in % is determined. 100% means that all spider mites have been killed; 0% means that none of the spider mites have been killed.

[3] = log P (pH 2.3); format: physicochemical

Structure (SMILES)	Kill rate in % after 7d [1] [%]	logP [3]	also measured
COc1c(Cl)cc(OCC=C(Cl)Cl)cc1C1=NOC(CCCOc2ccc3c(c2)CCCC3=O)C1 (stereo not shown)	100		
CCn1nnc(-c2ccc(OCCCC3CC(c4cc(OCC=C(Cl)Cl)cc(Cl)c4OC)=NO3)cc2)n1 (racemic) [Example I-1]			activity in Spodoptera frugiperda test ([1]; spray treatment, result in words): good activity
COc1c(Cl)cc(OCC=C(Cl)Cl)cc1C1=NOC(CCCOc2cccc3c2OC(C)(C)C3)C1 (stereo not shown) [drawing 46]			Kill rate in % after 7d [2]: 90%
COc1c(Cl)cc(OCC=C(Cl)Cl)cc1-c1nnc(CCCOCc2ccccc2)s1 [2-(3-benzyloxypropyl)-5-[3-chloro-5-(3,3-dichloroallyloxy)-2-methoxyphenyl]-[1,3,4]thiadiazole]		5.67	
COc1c(Cl)cc(OCC=C(Cl)Cl)cc1C(=O)NNC(=O)CCCOCc1ccccc1 [3-chloro-5-(3,3-dichloroallyloxy)-2-methoxybenzoic acid N′-(4-benzyloxybutyryl)hydrazide]		3.79	
CO/N=C/c1ccc(OCCCC2CC(c3cc(OCC=C(Cl)Cl)cc(Cl)c3OC)=NO2)cc1 (stereo not shown)	100		
COc1c(Cl)cc(OCC=C(Cl)Cl)cc1C1=NOC(CCCOc2ccc(N3CCCC3=O)cc2)C1 (stereo not shown)	100		
CCn1nnc(-c2ccc(OCCCC3CC(c4cc(OCC=C(Cl)Cl)cc(Cl)c4OC)=NO3)cc2)n1 (stereo not shown)	100		
COc1c(Cl)cc(OCC=C(Cl)Cl)cc1C1=NOC(CCCOc2cccc3c2OC(C)(C)C3)C1 (stereo not shown) [drawing 44]	100		
COc1c(Cl)cc(OCC=C(Cl)Cl)cc1C1=NC(CO)CO1 (stereo not shown) [{2-[3-chloro-5-(3,3-dichloroallyloxy)-2-methoxyphenyl]-4,5-dihydrooxazol-4-yl}methanol]		2.05	
